According to article PMC12014842, “An ^211At-labeled alpha-melanocyte stimulating hormone peptide analog for targeted alpha therapy of metastatic melanoma” (European Journal of Nuclear Medicine and Molecular Imaging, 2025):
Read-outs that look alike come from different tables or passages of the source. Values belong to the compound of their own block, whether it stands above or below them. Positions of bridges follow the written chain, without caps; N, C: chain ends. Non-standard residues stand in square brackets, D forms with d. Residues, ends and D or L forms follow the SMILES beside them. *: point of attachment. DOTA = O=C(O)CN1CCN(CC(=O)O)CCN(CC(=O)*)CCN(CC(=O)O)CC1; X1 = O=C(Cn1cc(COCC(CO)(CO)CI)nn1)*; Nle = CCCC[C@H](N)C(=O)O

What was measured:
[1] = target: T1, MC1R (B16F10 melanoma cells) (Mus musculus, UniProt Q01727); experiment: Receptor binding assay: competitive inhibition of [^125I]I-Tyr^2-NDP-MSH bound to B16F10 melanoma cells; details: competition with [^125I]I-Tyr^2-NDP-MSH, 37 °C, 1 h, brackets = 95% confidence interval
T1 construct: endogenous in cells; host or cells: B16F10 melanoma cells (Cell Resource Center for Biomedical Research, Tohoku University)
Description: B16F10 cells were obtained from the Cell Resource Center for Biomedical Research (Institute of Development, Aging and Cancer Tohoku University). B16F10 cells were cultivated in RPMI 1640 medium (Nacalai Tesque) supplemented with 10% fetal bovine serum (Thermo Scientific) in a humidified atmosphere containing 5% carbon dioxide at 37 °C. B16F10 cells (5 × 10^5 cells/well) were seeded in a 24-well poly-D-lysine coated plate (Corning) overnight. After the growth medium was removed, a reaction buffer containing 4.8 mg/mL HEPES, 100 U/mL penicillin, 1 mg/mL streptomycin and 2 mg/mL bovine serum albumin was added. Approximately 30,000 counts per minute of [^125I]I-Tyr^2-NDP-MSH and 0.5 pM to 5 µM of the peptides (NpG-GGN1a–NpG-GGN4a and In-DOTA-GGNle-CycMSHhex) were added to each well. The reaction mixture was incubated at 37 °C for 1 h. After incubation, the binding medium was removed, and the cells were rinsed twice with ice-cold phosphate-buffered saline (PBS). The cells were harvested using 0.25% trypsin solution, and the radioactivity was determined using an auto-well gamma counter. Ki values were calculated using GraphPad Prism 8.4.3 (GraphPad Software).

[2] = Log D7.4 measurements (1-octanol / phosphate buffer); assay type: physicochemical; details: 1-octanol / 25 mM phosphate buffer pH 7.4; mean ± SD
Description: This experiment was performed according to a previously reported procedure with slight modifications. In brief, an aliquot of radiolabeled GGNle-CycMSHhex analogs (50 kBq/5 µL) was mixed with equal amounts (1.5 mL) of 1-octanol and 25 mM phosphate buffer (pH 7.4). The mixture was vortexed for 1 min and then allowed to stand for 1 min. After repeating the procedure five times, the mixture was centrifuged at 1,500 g for 10 min. Aliquots of 0.5 mL were taken from each phase and their radioactivity was measured with an auto-well γ counter (Wizard 3, PerkinElmer). The partition coefficient was determined by calculating the ratio of counts per minute in the 1-octanol phase to that in the buffer phase and expressed as a common logarithm. The results represent the mean ± SD for each compound.

[3] = Biodistribution in tumor-bearing mice; assay type: in vivo; details: C57BL/6, mouse, iv, total radioactivity, 3 h after i.v. injection, Suppl. Table 1, mean ± SD, n = 4; for tissue uptake dose at 3 h: 7.4 kBq
Description: The animal experiments were conducted according to a protocol reviewed and approved by the Chiba University Animal Care Committee (Permit No. 4–183). Five-week-old C57BL/6 mice were subcutaneously xenografted in their right hind legs by injecting B16F10 cells (1.0 × 10^6 cells) suspended in Matrigel (BD Biosciences). When the tumor diameter achieved approximately 10 mm, the mice were subjected to biodistribution studies. Groups of four mice were sacrificed at each postinjection time point. A solution of each radiohalogenated GGNle-CycMSHhex analog or [^111In]In-DOTA-GGNle-CycMSHhex (7.4 kBq/100 µL) was injected into the tumor-bearing mice via the tail vein, and the mice were sacrificed at 3 h postinjection. A solution of [^125I]NpG-GGN4b (7.4 kBq) or [^211At]NpG-GGN4c (40 or 100 kBq) was also injected, and the mice were sacrificed at […] postinjection. Injected radioactivity of [^211At]NpG-GGN4c was 40 kBq for 1 and 3 h postinjection groups and 100 kBq for 24 postinjection group. Blocking studies were performed by co-injection of NDP-MSH (10 µg per mouse) simultaneously with [^125I]NpG-GGN4b (7.4 kBq) or [^211At]NpG-GGN4c (40 kBq), and the mice were sacrificed at 3 h postinjection. The organs of interest were removed, weighed, and radioactivity was estimated using an auto-well gamma counter.

T1 sequence (Q01727 whole entry): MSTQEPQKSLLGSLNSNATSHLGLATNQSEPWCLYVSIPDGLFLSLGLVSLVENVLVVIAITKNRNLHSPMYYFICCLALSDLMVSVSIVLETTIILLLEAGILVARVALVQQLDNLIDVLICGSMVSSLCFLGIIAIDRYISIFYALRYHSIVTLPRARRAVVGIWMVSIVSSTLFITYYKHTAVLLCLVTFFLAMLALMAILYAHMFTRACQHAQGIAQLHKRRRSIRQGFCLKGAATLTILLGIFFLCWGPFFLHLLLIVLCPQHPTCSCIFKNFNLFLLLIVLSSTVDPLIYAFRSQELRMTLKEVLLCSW

Ki [1]: 1.37 nM
SMILES: CCCC[C@H](NC(=O)CNC(=O)CNC(=O)[C@@H](CCCNC(=N)N)NC(=O)[C@@H](CCC(=O)O)NC(=O)Cn1cc(COCC(CO)(CO)CI)nn1)C(=O)N[C@H]1CC(=O)NCCCC[C@@H](C(N)=O)NC(=O)[C@H](Cc2c[nH]c3ccccc23)NC(=O)[C@H](CCCNC(=N)N)NC(=O)[C@@H](Cc2ccccc2)NC(=O)[C@H](Cc2c[nH]cn2)NC1=O [NpG-GGN4a] (X1-[dE][dR]GG[Nle]DH[dF]RWK-NH2; lactam 6-11)

logD [2]: -3.45 ± 0.17 | tissue uptake dose at 3 h ([3]; intestine, read-out: Biodistribution of radioactivity, Intestine): 0.6 ± 0.15 %ID | tissue uptake dose at 3 h ([3]; stomach, read-out: Biodistribution of radioactivity, Stomach): 0.2 ± 0.04 %ID | tissue uptake dose at 3 h ([3]; thyroid, read-out: Biodistribution of radioactivity, Thyroid): 0.01 %ID | tissue uptake at 3 h ([3]; tumor, 7.4 kBq/100 µL): 16.5 ± 1.89 %ID/g
SMILES: CCCC[C@H](NC(=O)CNC(=O)CNC(=O)CN1CCN(CC(=O)O)CCN(CC(=O)O)CCN(CC(=O)O)CC1)C(=O)N[C@H]1CC(=O)NCCCC[C@@H](C(N)=O)NC(=O)[C@H](Cc2c[nH]c3ccccc23)NC(=O)[C@H](CCCNC(=N)N)NC(=O)[C@@H](Cc2ccccc2)NC(=O)[C@H](Cc2c[nH]cn2)NC1=O [[^111In]In-DOTA-GGNle-CycMSHhex, metal not drawn] ({DOTA}-GG[Nle]DH[dF]RWK-NH2; lactam 4-9)

Ki [1]: 3.24 nM
SMILES: CCCC[C@H](NC(=O)CNC(=O)CNC(=O)[C@@H](CCC(=O)O)NC(=O)Cn1cc(COCC(CO)(CO)CI)nn1)C(=O)N[C@H]1CC(=O)NCCCC[C@@H](C(N)=O)NC(=O)[C@H](Cc2c[nH]c3ccccc23)NC(=O)[C@H](CCCNC(=N)N)NC(=O)[C@@H](Cc2ccccc2)NC(=O)[C@H](Cc2c[nH]cn2)NC1=O [NpG-GGN2a] (X1-[dE]GG[Nle]DH[dF]RWK-NH2; lactam 5-10)

Ki [1]: 2.81 nM
SMILES: CCCC[C@H](NC(=O)CNC(=O)CNC(=O)Cn1cc(COCC(CO)(CO)CI)nn1)C(=O)N[C@H]1CC(=O)NCCCC[C@@H](C(N)=O)NC(=O)[C@H](Cc2c[nH]c3ccccc23)NC(=O)[C@H](CCCNC(=N)N)NC(=O)[C@@H](Cc2ccccc2)NC(=O)[C@H](Cc2c[nH]cn2)NC1=O [NpG-GGN1a] (X1-GG[Nle]DH[dF]RWK-NH2; lactam 4-9)

Ki [1]: 14.9 nM
SMILES: CCCC[C@H](NC(=O)CNC(=O)CNC(=O)[C@@H](CCC(=O)O)NC(=O)[C@@H](CCC(=O)O)NC(=O)Cn1cc(COCC(CO)(CO)CI)nn1)C(=O)N[C@H]1CC(=O)NCCCC[C@@H](C(N)=O)NC(=O)[C@H](Cc2c[nH]c3ccccc23)NC(=O)[C@H](CCCNC(=N)N)NC(=O)[C@@H](Cc2ccccc2)NC(=O)[C@H](Cc2c[nH]cn2)NC1=O [NpG-GGN3a] (X1-[dE][dE]GG[Nle]DH[dF]RWK-NH2; lactam 6-11)
